Experimental data from patent publication US11987646B2, “Immunomodulatory peptides” (Leidos, Inc., priority 2020, dated 2024).

Key:
[1] = target: T1, PD1 (Homo sapiens, UniProt Q15116); assay: PATHHUNTER checkpoint signaling assay (PD1 activation / SHP1 recruitment); assay type: cell-based; details: Jurkat cells expressing PD1 and SHP1 co-incubated with PDL1-presenting U2OS cells, 2 h RT; peptides at 20 μM and 100 μM, in duplicate; FIG. 1
T1 construct: host or cells: Jurkat cells (PD1 and SHP1 EFC fusions), co-cultured with PDL1-presenting U2OS cells
T1 sequence (Q15116 25-288): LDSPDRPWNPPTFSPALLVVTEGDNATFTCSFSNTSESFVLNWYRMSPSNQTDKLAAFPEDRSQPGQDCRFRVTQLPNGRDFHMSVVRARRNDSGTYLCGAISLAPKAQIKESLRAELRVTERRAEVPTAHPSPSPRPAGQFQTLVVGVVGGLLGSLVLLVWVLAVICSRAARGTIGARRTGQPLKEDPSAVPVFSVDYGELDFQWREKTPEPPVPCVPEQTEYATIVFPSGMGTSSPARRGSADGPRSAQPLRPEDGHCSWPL
Description: Peptides were tested for their ability to inhibit the binding of PDL1 to PD1 using PATHHUNTER® checkpoint signaling assays (DiscoverX).
Jurkat cells expressing PD1 and SHP1 proteins, each fused to a fragment of enzyme fragment complementation (EFC) system, were co-incubated with PDL1-presenting U2OS cells. […] Inhibitory peptides or antibodies added to the culture would reduce the light signal.
Cells in co-culture were incubated at room temperature (RT) for 2 h (PD1 assay). The assay signal was generated using the PATHHUNTER® Bioassay Detection kit. FoLD01 (SEQ ID NO:1), LD10 (SEQ ID NO:5), and LD12 (SEQ ID NO:6) peptides were tested in duplicate at two concentrations, 20 μM and 100 μM. Peptides were dissolved in water or DMSO and diluted in assay buffer.
Microplates were read following signal generation using a PerkinElmer ENVISION™ instrument for chemiluminescent signal detection. The percentage of inhibition efficacy was calculated using the following formula, in which “RLU” means relative light units: […]

[2] = test system: MC38 (colon carcinoma) cells; assay: MC38 tumor model; assay type: in vivo, mice; details: intra-tumorally 2× a week, 50 μg dose, normalized to day 0, Mann-Whitney test, P value 0.0499
Description: Mice were injected subcutaneously with 1×10^6 MC38 (colon carcinoma) cells and tumor volumes were measured on day 2, 5, 9, 12, and 16 (end of study) and normalized to day 0 values for each animal. When the mean tumor size reached approximately 80-120 mm^3, mice were randomized and treatment was started. Peptides were tested in an MC38 tumor model. FoLD01 peptide was administered intra-tumorally 2× a week (50 μg dose). Monoclonal antibodies were administered intraperitoneally 2× a week (5 mg/kg (anti-CTLA4) and 10 mg/kg (anti-PD1) dose). Statistical test used: Unpaired, non-parametric, two-tailed Mann-Whitney test. Control used: intra-tumor injection of DMSO diluted in PBS (for FoLD01 injected intra-tumorally).

[3] = test system: IFNγ-secreting antigen-specific CD8+ T cells; assay: AdPyCS mouse model, IFNγ ELISPOT of spleen cells; assay type: in vivo; details: mice immunized i.m. with AdPyCSP, peptide subcutaneously 1 μg, 10 μg; spleens ten days post-injection; relative to AdPyCS-only; one-way ANOVA; FIG. 2
Description: Groups of five mice were immunized intramuscularly with a recombinant replication defective adenovirus expressing the Plasmodium yoelli circumsporozoite protein (AdPyCSP) and then treated subcutaneously with peptides LD10da ([…], in which the first amino acid is a D-amino acid, 1 μg), FoLD01 (1 μg, 10 μg), or an anti-PD1 monoclonal antibody (10 μg). Ten days post-injection, mice were euthanized and individual spleens removed. The number of IFNγ-secreting antigen-specific CD8+ T cells were determined using an ELISPOT assay (FIG. 2).

[4] = test system: Pan02 (pancreatic adenocarcinoma) cells; assay: Pan02 tumor model; assay type: in vivo, mice; details: intra-tumorally 2× a week, 50 μg dose, normalized to day 0, Mann-Whitney test
Description: Mice were injected subcutaneously with 3×10^6 Pan02 (pancreatic adenocarcinoma) cells in the right rear flank. Tumor volumes were measured at least twice weekly in two dimensions using a caliper. When the mean tumor size reached approximately 80-120 mm^3, mice were randomized and treatment was started. FoLD04 was administered intra-tumorally 2× a week (50 μg dose). Monoclonal antibodies were administered intraperitoneally 2× a week (5 mg/kg (anti-CTLA4) and 10 mg/kg (anti-PD1) dose).
Tumor volumes were measured on day 4, 7, 11, 14, 18, 21, 25 and 27 (end of study) and normalized to day 0 values for each animal. Statistical test used: Unpaired, non-parametric, two-tailed Mann-Whitney test.
Control used: intra-tumor injection of DMSO diluted in PBS (for FoLD04 injected intra-tumorally).

FoLD01: peptide, amino acid sequence STNQVSALRVNILFPLSQ (SEQ ID NO:1) (FoLD01 peptide)
inhibition of PD1-PDL1 interaction (percentage of inhibition efficacy) [1]: inhibited PD1-PDL1 interaction to a greater extent than peptides LD10 and LD12
tumor volume relative to intra-tumoral DMSO/PBS control [2]: significantly decreased tumor volume
number of IFNγ-secreting antigen-specific CD8+ T cells [3]: enhances the number of antigen-specific CD8+ T cells relative to stimulation with antigen only

FoLD04: peptide, amino acid sequence QVSALRVNILF (SEQ ID NO:4) (listed as Fusarium oxysporum)
tumor volume relative to DMSO/PBS IT control [4]: significantly decreased tumor volume
